In patent publication US20160326142A1, “PYRAZOLE CARBOXAMIDE COMPOUNDS, COMPOSITIONS AND METHODS OF USE” (Genentech, Inc., priority 2012, published 2016) one finds Ki data, which are given here for 24 compounds.

In this assay the target is T1, ITK (Homo sapiens, UniProt Q08881).
T1 construct: purchased Invitrogen PV3875
T1 sequence (Q08881 1-620): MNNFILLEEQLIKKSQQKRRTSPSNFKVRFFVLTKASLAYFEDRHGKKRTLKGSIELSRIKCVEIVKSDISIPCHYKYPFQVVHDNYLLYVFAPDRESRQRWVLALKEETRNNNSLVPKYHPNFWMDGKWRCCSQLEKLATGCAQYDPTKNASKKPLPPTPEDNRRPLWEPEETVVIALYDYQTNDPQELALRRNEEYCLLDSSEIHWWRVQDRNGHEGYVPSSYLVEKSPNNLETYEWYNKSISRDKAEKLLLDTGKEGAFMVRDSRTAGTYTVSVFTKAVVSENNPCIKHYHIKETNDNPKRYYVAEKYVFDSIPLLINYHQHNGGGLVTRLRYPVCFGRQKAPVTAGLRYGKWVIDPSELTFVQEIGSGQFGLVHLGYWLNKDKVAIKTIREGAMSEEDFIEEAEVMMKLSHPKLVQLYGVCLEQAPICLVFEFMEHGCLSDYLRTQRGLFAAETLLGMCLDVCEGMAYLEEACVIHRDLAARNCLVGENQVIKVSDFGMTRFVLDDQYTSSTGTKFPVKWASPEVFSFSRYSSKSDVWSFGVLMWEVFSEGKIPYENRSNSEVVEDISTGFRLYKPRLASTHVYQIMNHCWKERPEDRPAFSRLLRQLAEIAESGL
Briefly: ITK enzyme assay (Caliper or LCMS peptide phosphorylation). Format: biochemical. The settings on record: purified ITK (Invitrogen PV3875), 20 μM ATP, Ki by Morrison's quadratic equation. In outline:
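Ki values come from Morrison quadratic fits of activity versus inhibitor concentration, adjusted for ATP-competitive inhibition against ATP/Km,app. Substrate and phosphopeptide from purified ITK reactions were resolved either microfluidically (Caliper, EDTA stop) or by LC-MS MRM (TCA stop).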
For the compound `CC12Cc3[nH]nc(C(=O)Nc4cnn(C(c5cccnc5)C5CC[S+]([O-])CC5)c4)c3CC1C2` (single isomer, unassigned) [Example 146d, 5a-methyl-N-(1-((1-oxidotetrahydro-2H-thiopyran-4-yl)(pyridin-3-yl)methyl)-1H-pyrazol-4-yl)-1,4,4a,5,5a,6-hexahydrocyclopropa[f]indazole-3-carboxamide], the inhibition constant Ki came out at 0.002 µM.
On to `CC1(C)CCc2c(C(=O)Nc3cnn(C(c4cccnc4)C4CC[S+]([O-])CC4)c3)n[nH]c2C1` (single isomer, unassigned) [Example 147a, 6,6-dimethyl-N-(1-((1-oxidotetrahydro-2H-thiopyran-4-yl)(pyridin-3-yl)methyl)-1H-pyrazol-4-yl)-4,5,6,7-tetrahydro-1H-indazole-3-carboxamide], for which the affinity corresponds to a Ki of 0.0006 µM.
`CC1(C)CCc2c(C(=O)Nc3cnn(C(c4cccnc4)C4CC[S+]([O-])CC4)c3)n[nH]c2C1` (single isomer, unassigned) [Example 147b, 6,6-dimethyl-N-(1-((1-oxidotetrahydro-2H-thiopyran-4-yl)(pyridin-3-yl)methyl)-1H-pyrazol-4-yl)-4,5,6,7-tetrahydro-1H-indazole-3-carboxamide] came in with a Ki of 0.004 µM.
`CC1(C)CCc2c(C(=O)Nc3cnn(C(c4cccnc4)C4CC[S+]([O-])CC4)c3)n[nH]c2C1` (single isomer, unassigned) [Example 147c, 6,6-dimethyl-N-(1-((1-oxidotetrahydro-2H-thiopyran-4-yl)(pyridin-3-yl)methyl)-1H-pyrazol-4-yl)-4,5,6,7-tetrahydro-1H-indazole-3-carboxamide] yielded a Ki of 0.007 µM.
In turn, `CC1(C)CCc2c(C(=O)Nc3cnn(C(c4cccnc4)C4CC[S+]([O-])CC4)c3)n[nH]c2C1` (single isomer, unassigned) [Example 147d, 6,6-dimethyl-N-(1-((1-oxidotetrahydro-2H-thiopyran-4-yl)(pyridin-3-yl)methyl)-1H-pyrazol-4-yl)-4,5,6,7-tetrahydro-1H-indazole-3-carboxamide] returned a Ki of 0.0006 µM.
As for `O=C1CCC2(CCc3c(C(=O)Nc4cnn(Cc5ccccc5)c4)n[nH]c3C2)N1` (single isomer, unassigned) [Example 148a, N-(1-benzyl-1H-pyrazol-4-yl)-5′-oxo-1,4,5,7-tetrahydrospiro[indazole-6,2′-pyrrolidine]-3-carboxamide], the Ki was over 0.4 µM.
The value for `O=C1CCC2(CCc3c(C(=O)Nc4cnn(Cc5ccccc5)c4)n[nH]c3C2)N1` (single isomer, unassigned) [Example 148b, N-(1-benzyl-1H-pyrazol-4-yl)-5′-oxo-1,4,5,7-tetrahydrospiro[indazole-6,2′-pyrrolidine]-3-carboxamide] was over 0.4 µM; that for `CC1(N2CCOCC2)CCc2c(C(=O)Nc3cnn(Cc4ccccc4)c3)n[nH]c2C1` (single isomer, unassigned) [Example 149a, N-(1-benzyl-1H-pyrazol-4-yl)-6-methyl-6-morpholino-4,5,6,7-tetrahydro-1H-indazole-3-carboxamide] was over 0.4 µM; that for `CC1(N2CCOCC2)CCc2c(C(=O)Nc3cnn(Cc4ccccc4)c3)n[nH]c2C1` (single isomer, unassigned) [Example 149b, N-(1-benzyl-1H-pyrazol-4-yl)-6-methyl-6-morpholino-4,5,6,7-tetrahydro-1H-indazole-3-carboxamide] was over 0.4 µM.
The compound `CC12Cc3[nH]nc(C(=O)Nc4cnn(Cc5ccccc5)c4)c3C1C2` (single isomer, unassigned) [Example 150a, N-(1-benzyl-1H-pyrazol-4-yl)-4a-methyl-3b,4,4a,5-tetrahydro-1H-cyclopropa[3,4]cyclopent a[1,2-c]pyrazole-3-carboxamide] registered a Ki of 0.13 µM.
For `CC12Cc3[nH]nc(C(=O)Nc4cnn(Cc5ccccc5)c4)c3C1C2` (single isomer, unassigned) [Example 150b, N-(1-benzyl-1H-pyrazol-4-yl)-4a-methyl-3b,4,4a,5-tetrahydro-1H-cyclopropa[3,4]cyclopent a[1,2-c]pyrazole-3-carboxamide], the affinity, expressed as Ki, was 0.032 µM.
Compound `CC12Cc3c(C(=O)Nc4cnn(Cc5ccccc5)c4)n[nH]c3C1C2` (single isomer, unassigned) [Example 151a, N-(1-benzyl-1H-pyrazol-4-yl)-4a-methyl-4,4a,5,5a-tetrahydro-1H-cyclopropa[4,5]cyclopent a[1,2-c]pyrazole-3-carboxamide] showed an inhibition constant (Ki) of 0.016 µM.
Compound `CC12Cc3c(C(=O)Nc4cnn(Cc5ccccc5)c4)n[nH]c3C1C2` (single isomer, unassigned) [Example 151b, N-(1-benzyl-1H-pyrazol-4-yl)-4a-methyl-4,4a,5,5a-tetrahydro-1H-cyclopropa[4,5]cyclopent a[1,2-c]pyrazole-3-carboxamide] yielded an inhibition constant (Ki) of 0.012 µM.
As for `CC12Cc3c(C(=O)Nc4cnn(C(c5ccccc5)C5CCS(=O)(=O)CC5)c4)n[nH]c3C1C2` (single isomer, unassigned) [Example 152a, N-(1-((1,1-dioxidotetrahydro-2H-thiopyran-4-yl)(phenyl)methyl)-1H-pyrazol-4-yl)-4a-methyl-4,4a,5,5a-tetrahydro-1H-cyclopropa[4,5]cyclopenta[1,2-c]pyrazole-3-carboxamide], the Ki is 0.042 µM.
`CC12Cc3c(C(=O)Nc4cnn(C(c5ccccc5)C5CCS(=O)(=O)CC5)c4)n[nH]c3C1C2` (single isomer, unassigned) [Example 152b, N-(1-((1,1-dioxidotetrahydro-2H-thiopyran-4-yl)(phenyl)methyl)-1H-pyrazol-4-yl)-4a-methyl-4,4a,5,5a-tetrahydro-1H-cyclopropa[4,5]cyclopenta[1,2-c]pyrazole-3-carboxamide]: the affinity corresponds to a Ki of 0.003 µM.
Compound `CC12Cc3c(C(=O)Nc4cnn(C(c5ccccc5)C5CCS(=O)(=O)CC5)c4)n[nH]c3C1C2` (single isomer, unassigned) [Example 152c, N-(1-((1,1-dioxidotetrahydro-2H-thiopyran-4-yl)(phenyl)methyl)-1H-pyrazol-4-yl)-4a-methyl-4,4a,5,5a-tetrahydro-1H-cyclopropa[4,5]cyclopenta[1,2-c]pyrazole-3-carboxamide] gave an inhibitory constant (Ki) of 0.002 µM.
`CC12Cc3c(C(=O)Nc4cnn(C(c5ccccc5)C5CCS(=O)(=O)CC5)c4)n[nH]c3C1C2` (single isomer, unassigned) [Example 152d, N-(1-((1,1-dioxidotetrahydro-2H-thiopyran-4-yl)(phenyl)methyl)-1H-pyrazol-4-yl)-4a-methyl-4,4a,5,5a-tetrahydro-1H-cyclopropa[4,5]cyclopenta[1,2-c]pyrazole-3-carboxamide] yielded an inhibition constant Ki of 0.015 µM.
`CC12CCc3c(C(=O)Nc4cnn(Cc5ccccc5)c4)n[nH]c3C1C2` (single isomer, unassigned) [Example 153a, N-(1-benzyl-1H-pyrazol-4-yl)-5a-methyl-1,4,5,5a,6,6a-hexahydrocyclopropa[g]indazole-3-c arboxamide] showed an inhibition constant (Ki) of 0.058 µM.
`CC12CCc3c(C(=O)Nc4cnn(Cc5ccccc5)c4)n[nH]c3C1C2` (single isomer, unassigned) [Example 153b, N-(1-benzyl-1H-pyrazol-4-yl)-5a-methyl-1,4,5,5a,6,6a-hexahydrocyclopropa[g]indazole-3-c arboxamide] had a Ki of 0.015 µM.
Take `CC1(C)CCc2c(C(=O)Nc3cnn(C(c4cccc(S(C)(=O)=O)c4)C4CCOCC4)c3)n[nH]c2C1` (single isomer, unassigned) [Example 154a, 6,6-dimethyl-N-(1-((3-(methylsulfonyl)phenyl)(tetrahydro-2H-pyran-4-yl)methyl)-1H-pyrazol-4-yl)-4,5,6,7-tetrahydro-1H-indazole-3-carboxamide]: the Ki came to 0.0001 µM.
In turn, `CC1(C)CCc2c(C(=O)Nc3cnn(C(c4cccc(S(C)(=O)=O)c4)C4CCOCC4)c3)n[nH]c2C1` (single isomer, unassigned) [Example 154b, 6,6-dimethyl-N-(1-((3-(methylsulfonyl)phenyl)(tetrahydro-2H-pyran-4-yl)methyl)-1H-pyrazol-4-yl)-4,5,6,7-tetrahydro-1H-indazole-3-carboxamide] displayed a Ki of 0.001 µM.
In the case of `N#Cc1cccc(Cn2cc(NC(=O)c3n[nH]c4c3CCCC4)cn2)c1` [Example 3, N-(1-(3-cyanobenzyl)-1H-pyrazol-4-yl)-4,5,6,7-tetrahydro-1H-indazole-3-carboxamide], the Ki came to 0.031 µM.
The value for `O=C(Nc1cnn(Cc2ccccc2)c1)c1n[nH]c2c1CC1(CC2)COC1` [Example 13, N-(1-benzyl-1H-pyrazol-4-yl)-1,4,6,7-tetrahydrospiro[indazole-5,3′-oxetane]-3-carboxamide] was 0.24 µM.
For the compound `O=C(Nc1cnn(Cc2ccccc2)c1)c1n[nH]c2c1CC(F)(F)CC2` [Example 17, N-(1-benzyl-1H-pyrazol-4-yl)-5,5-difluoro-4,5,6,7-tetrahydro-1H-indazole-3-carboxamide], the affinity corresponds to a Ki of 0.036 µM.
